“And” between values parts separate entries of the source, which are not always exact repeats. Equal entries are not always repeated. Where a SMILES comes first, the peptide text is derived from it. Where no end group is shown, it is not given here.

The test system of data set [1] is plasmid DNA. Briefly: Composite peptide-DNA hydrogels: DNA loading, encapsulation and release. The class given is physicochemical. The conditions noted are these: for amount of DNA that can be incorporated into the composite hydrogel: plasmid DNA loading. As for the experimental part: Various peptides (AcLD6, i.e. Ac-LIVAGD, SEQ ID NO: 65; AcLK6, i.e. Ac-LIVAGK, SEQ ID NO: 66; AcLS6, i.e. Ac-LIVAGS, SEQ ID NO: 67) were used to encapsulate plasmid DNA, forming composite peptide-DNA hydrogels (A). […] When the composite hydrogels were incubated with DNAse, digested DNA fragments were not observed, compared to the naked DNA control. […] Potential applications include synthetic cell culture substrates that mediate sustained DNA, mRNA, siRNA and short hairpin RNA delivery (C).
The peptide sequence (particularly the polar head group) and concentration plays a significant role in determining the maximum amount of DNA that can be incorporated into the composite hydrogel.
Even after 10 days, at least 80% of the DNA loaded remained in composite hydrogel. In particular, the Ac-LIVAGK (L)-DNA hydrogel retained 95% of the DNA added. The release of the nucleic acid can potentially be modulated by the peptide composition.

Data set [2] is described as follows: Peptide stability studies (TGA, 1H-NMR, HPLC-MS after UV or autoclave treatment). The class given is physicochemical. The conditions noted are these: for decomposition by 1H-NMR: UV treated (2 h, 254 nm) or autoclaved (30 min, 120° C.); for degradation by HPLC-MS: following UV and autoclave treatment.
The test system of data set [3] is human derived adipose stem cells. Briefly: Subcutaneous implantation of hydrogels seeded with human derived adipose stem cells. The class given is in vivo. The conditions noted are these: nude mice, after 45 days. The source says: FIG. 16. In vivo scaffold for adipose tissue regeneration Fat pad observed under the skeletal muscle layer in the region of the human adipose stem cell (hASC) implant 45 days post-implantation (A-C). The transplanted cells have the appearance of normal mature adipose tissue (D)—adipocytes with dark nuclei at edge, cells filled with fat.

A short description of data set [4]: Pilot study with 4 mice (10 days): blood cell counts after hydrogel implant. The class given is in vivo. The conditions noted are these: 30 μL gel implant. From the text:
There were no behavioral changes or weight loss following implantation for up to 2 months, and there was no significant difference in red or white blood cell counts or blood chemistry (liver and kidney function) between mice implanted with hydrogels and sham operated mice.

[5] abbreviates: SCID mice, listed as Ac-LIVAGK (L) gel.

For Ac-LIVAGD [AcLD6], the “amount of DNA that can be incorporated into the composite hydrogel” value in data set [1] is “lowest threshold for DNA loading”. Further, in data set [2], the “decomposition by 1H-NMR” value is given as “do not decompose” and the “degradation by HPLC-MS” value was “minimal”.

Turning to `CC[C@H](C)[C@H](NC(=O)[C@H](CC(C)C)NC(C)=O)C(=O)N[C@H](C(=O)N[C@@H](C)C(=O)NCC(=O)N[C@@H](CCCCN)C(=O)O)C(C)C` [AcLK6, Ac-LIVAGK] (Ac-LIVAGK-OH), in data set [3], the “adipose tissue formation under the implant site” value was “formation of fat pads”. Moreover, in data set [1] (composite peptide-DNA hydrogel), the “encapsulating and trapping of plasmid DNA” value was “extremely efficient in encapsulating and trapping the DNA”. Moreover, in data set [1] (over the course of several days), the “release of the DNA” value is “minimal release of the DNA”. In addition, the “amount of DNA that can be incorporated into the composite hydrogel” value in data set [1] is given as “could integrate the highest concentration of DNA”. Moreover, in data set [4] (setting [5]), the erythrocytes is 9.29 M/uL and 11.33 M/uL; the lymphocytes is 0.88 K/uL and 0.9 K/uL; the monocytes was 0.22 K/uL and 0.12 K/uL; the thrombocytes was 0.607 M/uL and 0.978 M/uL. In data set [4] (normal mouse), this compound registered a basophils of 0.02 K/uL, an eosinophils of 0.11 K/uL, an erythrocytes of 10.65 M/uL and a lymphocytes of 3.76 K/uL. In data set [4] (normal mouse), this compound showed a monocytes of 0.42 K/uL, a neutrophils of 1.6 K/uL and a thrombocytes of 0.833 M/uL.

Turning to Ac-IVD (Ac-Ile-Val-Asp) [AcID3], in data set [2], the “decomposition by 1H-NMR” value is recorded as “do not decompose” and the “degradation by HPLC-MS” value was “minimal”.

For the origin of these results see patent US10449257B2, “Self-assembled composite ultrasmall peptide-polymer hydrogels” (Agency for Science, Technology and Research, priority 2011, dated 2019).
